From PubChem BioAssay (NCI)
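How tested: cells in 96-well plates exposed to compound for 48 hours at five concentrations. Abbreviation: GI50, concentration required for 50% inhibition of growth. The concentration for full growth arrest is given as TGI.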

Experiments:
Test in all cases: NCI-60 cell line screen, 48 h
MALME-3M melanoma = system: MALME-3M melanoma
TK-10 renal = system: TK-10 renal
SR leukemia = system: SR leukemia
SF-295 CNS = system: SF-295 CNS
ACHN renal = system: ACHN renal
PC-3 prostate = system: PC-3 prostate
HOP-62 NSCLC = system: HOP-62 NSCLC
NCI-H460 lung = system: NCI-H460 lung
EKVX NSCLC = system: EKVX NSCLC
U251 CNS = system: U251 CNS
HL-60(TB) leukemia = system: HL-60(TB) leukemia
KM12 colon = system: KM12 colon
HCC-2998 colon = system: HCC-2998 colon
RPMI-8226 leukemia = system: RPMI-8226 leukemia
NCI/ADR-RES ovarian = system: NCI/ADR-RES ovarian
RXF 393 renal = system: RXF 393 renal
SK-MEL-28 melanoma = system: SK-MEL-28 melanoma
MDA-MB-231 breast = system: MDA-MB-231 breast
T-47D breast = system: T-47D breast
A549 NSCLC = system: A549 NSCLC
CAKI-1 renal = system: CAKI-1 renal
NCI-H23 lung = system: NCI-H23 lung
MCF7 breast = system: MCF7 breast
HCT-15 colon = system: HCT-15 colon
MOLT-4 leukemia = system: MOLT-4 leukemia
HCT-116 colon = system: HCT-116 colon
HT29 colon = system: HT29 colon
HS 578T breast = system: HS 578T breast
SNB-19 CNS = system: SNB-19 CNS
NCI-H522 lung = system: NCI-H522 lung
OVCAR-5 ovarian = system: OVCAR-5 ovarian
CCRF-CEM leukemia = system: CCRF-CEM leukemia
SF-268 CNS = system: SF-268 CNS
HOP-92 NSCLC = system: HOP-92 NSCLC
SF-539 CNS = system: SF-539 CNS
DU-145 prostate = system: DU-145 prostate
BT-549 breast = system: BT-549 breast
M14 melanoma = system: M14 melanoma
UACC-257 melanoma = system: UACC-257 melanoma
UO-31 renal = system: UO-31 renal
NCI-H226 lung = system: NCI-H226 lung
OVCAR-3 ovarian = system: OVCAR-3 ovarian
MDA-MB-435 = system: MDA-MB-435
SNB-75 CNS = system: SNB-75 CNS
SK-MEL-2 melanoma = system: SK-MEL-2 melanoma
OVCAR-4 ovarian = system: OVCAR-4 ovarian
SK-MEL-5 melanoma = system: SK-MEL-5 melanoma
786-0 renal = system: 786-0 renal
A498 renal = system: A498 renal
SN12C renal = system: SN12C renal
UACC-62 melanoma = system: UACC-62 melanoma
SK-OV-3 ovarian = system: SK-OV-3 ovarian
SW-620 colon = system: SW-620 colon
K-562 leukemia = system: K-562 leukemia
LOX IMVI melanoma = system: LOX IMVI melanoma
OVCAR-8 ovarian = system: OVCAR-8 ovarian
COLO 205 colon = system: COLO 205 colon
IGROV1 ovarian = system: IGROV1 ovarian

Molecule `O=C1[C@@H]2Cc3c([nH]c4ccccc34)[C@H](c3c(Cl)cccc3Cl)N2C(=O)CN1C1CCN(Cc2ccccc2)CC1` has a GI50 (MALME-3M melanoma) of 2.3 µM, a TGI (MALME-3M melanoma) of 4.87 µM and a GI50 (TK-10 renal) of 2.58 µM. The TGI (TK-10 renal) was 5.13 µM, the GI50 (SR leukemia) was 2.32 µM and the TGI (SR leukemia) was 6.92 µM. The GI50 (SF-295 CNS) was 2.46 µM, the TGI (SF-295 CNS) was 4.62 µM and the GI50 (ACHN renal) was 2.19 µM. For the same molecule, the TGI (ACHN renal) was 4.15 µM, the GI50 (PC-3 prostate) was 3.06 µM and the TGI (PC-3 prostate) was 10.7 µM. For the same molecule, the GI50 (HOP-62 NSCLC) was 2.29 µM, the TGI (HOP-62 NSCLC) was 5.66 µM and the GI50 (NCI-H460 lung) was 2.82 µM. For the same molecule, the TGI (NCI-H460 lung) was 5.68 µM, the GI50 (EKVX NSCLC) was 6.78 µM and the TGI (EKVX NSCLC) was > 14.3 µM. The GI50 (U251 CNS) was 2.34 µM, the TGI (U251 CNS) was 4.63 µM and the GI50 (HL-60(TB) leukemia) was 4.03 µM. The TGI (HL-60(TB) leukemia) was 13.6 µM, the GI50 (KM12 colon) was 4.59 µM and the TGI (KM12 colon) was > 14.3 µM. It also gave a GI50 (HCC-2998 colon) of 2.27 µM, a TGI (HCC-2998 colon) of 4.72 µM and a GI50 (RPMI-8226 leukemia) of 2.74 µM. The TGI (RPMI-8226 leukemia) was 8.28 µM, the GI50 (NCI/ADR-RES ovarian) was 2.78 µM and the TGI (NCI/ADR-RES ovarian) was 6.86 µM. The GI50 (RXF 393 renal) was 1.92 µM, the TGI (RXF 393 renal) was 3.86 µM and the GI50 (SK-MEL-28 melanoma) was 2.37 µM. It also gave a TGI (SK-MEL-28 melanoma) of 4.55 µM, a GI50 (MDA-MB-231 breast) of 2.57 µM and a TGI (MDA-MB-231 breast) of 6.27 µM. For the same molecule, the GI50 (T-47D breast) was 2.59 µM, the TGI (T-47D breast) was 7.95 µM and the GI50 (A549 NSCLC) was 2.68 µM. The TGI (A549 NSCLC) was 7.2 µM, the GI50 (CAKI-1 renal) was 1.81 µM and the TGI (CAKI-1 renal) was 4.79 µM. For the same molecule, the GI50 (NCI-H23 lung) was 4.77 µM, the TGI (NCI-H23 lung) was > 14.3 µM and the GI50 (MCF7 breast) was 2.13 µM. It also gave a TGI (MCF7 breast) of 4.61 µM, a GI50 (HCT-15 colon) of 2.52 µM and a TGI (HCT-15 colon) of 5.09 µM. The GI50 (MOLT-4 leukemia) was 3.03 µM, the TGI (MOLT-4 leukemia) was 13.8 µM and the GI50 (HCT-116 colon) was 2.6 µM. It also gave a TGI (HCT-116 colon) of 5.49 µM, a GI50 (HT29 colon) of 3.23 µM and a TGI (HT29 colon) of 8.02 µM. It also gave a GI50 (HS 578T breast) of 2.21 µM, a TGI (HS 578T breast) of 6.52 µM and a GI50 (SNB-19 CNS) of 5.25 µM. For the same molecule, the TGI (SNB-19 CNS) was > 14.3 µM, the GI50 (NCI-H522 lung) was 2.95 µM and the TGI (NCI-H522 lung) was 7.7 µM. It also gave a GI50 (OVCAR-5 ovarian) of 3.12 µM, a TGI (OVCAR-5 ovarian) of 9.29 µM and a GI50 (CCRF-CEM leukemia) of 4.33 µM. The TGI (CCRF-CEM leukemia) was > 14.3 µM, the GI50 (SF-268 CNS) was 2.82 µM and the TGI (SF-268 CNS) was 10.8 µM. For the same molecule, the GI50 (HOP-92 NSCLC) was 1.55 µM, the TGI (HOP-92 NSCLC) was 7.25 µM and the GI50 (SF-539 CNS) was 2.37 µM. The TGI (SF-539 CNS) was 4.55 µM, the GI50 (DU-145 prostate) was 4.55 µM and the TGI (DU-145 prostate) was > 14.3 µM. The GI50 (BT-549 breast) was 2.22 µM, the TGI (BT-549 breast) was 5.17 µM and the GI50 (M14 melanoma) was 2.42 µM. For the same molecule, the TGI (M14 melanoma) was 6.47 µM, the GI50 (UACC-257 melanoma) was 2.46 µM and the TGI (UACC-257 melanoma) was 5.68 µM. The GI50 (UO-31 renal) was 1.43 µM, the TGI (UO-31 renal) was 3.15 µM and the GI50 (NCI-H226 lung) was 10.6 µM. The TGI (NCI-H226 lung) was > 14.3 µM, the GI50 (OVCAR-3 ovarian) was 2.85 µM and the TGI (OVCAR-3 ovarian) was 6.83 µM. It also gave a GI50 (MDA-MB-435) of 2.36 µM, a TGI (MDA-MB-435) of 4.81 µM and a GI50 (SNB-75 CNS) of 0.719 µM. The TGI (SNB-75 CNS) was 3.43 µM, the GI50 (SK-MEL-2 melanoma) was 4.94 µM and the TGI (SK-MEL-2 melanoma) was > 14.3 µM. For the same molecule, the GI50 (OVCAR-4 ovarian) was 2.42 µM, the TGI (OVCAR-4 ovarian) was 5.1 µM and the GI50 (SK-MEL-5 melanoma) was 2.4 µM. It also gave a TGI (SK-MEL-5 melanoma) of 4.82 µM, a GI50 (786-0 renal) of 2.5 µM and a TGI (786-0 renal) of 4.7 µM. The GI50 (A498 renal) was 3.49 µM, the TGI (A498 renal) was 12.4 µM and the GI50 (SN12C renal) was 2.35 µM. It also gave a TGI (SN12C renal) of 5.31 µM, a GI50 (UACC-62 melanoma) of 2.26 µM and a TGI (UACC-62 melanoma) of 4.66 µM. The GI50 (SK-OV-3 ovarian) was 2.85 µM, the TGI (SK-OV-3 ovarian) was 8.47 µM and the GI50 (SW-620 colon) was 2.93 µM. It also gave a TGI (SW-620 colon) of 7.19 µM, a GI50 (K-562 leukemia) of 2.98 µM and a TGI (K-562 leukemia) of 7.56 µM. It also gave a GI50 (LOX IMVI melanoma) of 2.21 µM, a TGI (LOX IMVI melanoma) of 4.54 µM and a GI50 (OVCAR-8 ovarian) of 3.8 µM. For the same molecule, the TGI (OVCAR-8 ovarian) was 13.1 µM, the GI50 (COLO 205 colon) was 4.09 µM and the TGI (COLO 205 colon) was > 14.3 µM. The GI50 (IGROV1 ovarian) was 2.07 µM and the TGI (IGROV1 ovarian) was 7.52 µM.
